Series [1] deals with CYP2B6 mRNA. Description: CYP2B6 mRNA expression in HepG2 cells (RT-PCR, agarose gel). In kind it is cell-based, human. The settings on record: HepG2, 10 μM, positive control, p < 0.001 vs cell control.
In series [2] the target is T1, rifampicin metabolism (β-esterases) (Homo sapiens, UniProt P22760).
T1 sequence (P22760 1-399): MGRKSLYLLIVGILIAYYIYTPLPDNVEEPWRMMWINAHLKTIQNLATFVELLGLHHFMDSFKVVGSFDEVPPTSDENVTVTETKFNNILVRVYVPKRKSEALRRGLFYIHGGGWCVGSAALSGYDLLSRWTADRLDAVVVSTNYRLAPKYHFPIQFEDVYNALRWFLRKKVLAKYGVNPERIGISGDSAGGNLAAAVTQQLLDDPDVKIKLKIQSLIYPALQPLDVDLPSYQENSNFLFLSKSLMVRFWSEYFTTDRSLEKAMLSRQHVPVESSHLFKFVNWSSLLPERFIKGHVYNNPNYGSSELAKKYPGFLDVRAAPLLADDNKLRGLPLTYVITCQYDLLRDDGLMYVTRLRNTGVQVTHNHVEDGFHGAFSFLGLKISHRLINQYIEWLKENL
Description: HLM inhibition assay, rifampicin metabolism to 25-O-desacetyl rifampicin, two-point screening and IC50. The class given is in vitro ADME. Particulars: liver microsomes, pH 7.4, two-point screening, 49.79 μg/ml, read-out: rifampicin metabolism activity reduced by. The method, then:
The inhibitory potential of each extract was assessed using two-point screening (20 and 200 μg/ml) and the activity potential was compared with the control incubates (without inhibitor). Neostigmine was used as the internal standard.
Briefly, a standard 200 μl incubation mixture containing the liver microsomes (0.5 mg/ml protein concentration for efavirenz, 0.25 mg/ml protein concentration rifampicin), efavirenz (15 μM)/rifampicin (48 μM) in 0.2M phosphate buffer (pH 7.4) and the basil herb extract (final concentration […] or 200 μg/ml, dissolved in <1% solvent) was incubated at 37°C for 30 min, in triplicates, with master reaction mix comprising of NADPH (final concentration 1.3 mM) and other reaction co-factors such as glucose-6-phosphate (final concentration 1.3 mM), glucose-6-phosphate dehydrogenase (1 U/ml) and magnesium chloride (final concentration 3.3 mM). About 200 μl of chilled ice-cold acetonitrile spiked with neostigmine (20 μM) was used to terminate each reaction. These samples were then centrifuged at 13,000 rpm for 10 min and the supernatants were subjected to HPLC analysis. The mobile phase comprised of water (A): acetonitrile (B) at a flow rate of 0.7 ml min^-1 for efavirenz samples and water (A): methanol (B) at a flow rate of 0.8 ml min^-1 for rifampicin samples. […] The percentage of remaining activity was expressed as in the equation below (equation 2.8.3.1): […]
On the technique in general: Liver microsomes are vesicles of endoplasmic reticulum, rich in cytochrome P450 enzymes.

In series [3] the test system is UDP glucuronosyltransferases. Also on record: method as in Zhang et al., 2005. The settings on record: different assay conditions, bilirubin as the substrate; ref Zhang et al., 2005; read-out: IC50 reported in a previous HLM study; cited from earlier work.
In series [4] the target is T1, rifampicin metabolism (β-esterases). Description: Time-dependent inhibition (TDI) IC50 shift assay in HLM, rifampicin metabolism. In kind it is in vitro ADME. Particulars: human liver microsomes, probe rifampicin. The method, then:
The TDI fold-shift was calculated using the ratio of the IC50s of the normal assay IC50(-) to that of the pre-incubation assay IC50(+), with NADPH (equation 2.8.3.2).
Eq. (2.8.3.2) TDIfold-shift=normal assayIC50(−)/pre-incubation assayIC50(+)
Extracts with fold shifts ≥1.5 were classified positive for TDI ([Nomeir et al., 2004]).

Series [5] addresses T2, CYP2B6 (Homo sapiens, UniProt P20813).
T2 sequence (P20813 1-491): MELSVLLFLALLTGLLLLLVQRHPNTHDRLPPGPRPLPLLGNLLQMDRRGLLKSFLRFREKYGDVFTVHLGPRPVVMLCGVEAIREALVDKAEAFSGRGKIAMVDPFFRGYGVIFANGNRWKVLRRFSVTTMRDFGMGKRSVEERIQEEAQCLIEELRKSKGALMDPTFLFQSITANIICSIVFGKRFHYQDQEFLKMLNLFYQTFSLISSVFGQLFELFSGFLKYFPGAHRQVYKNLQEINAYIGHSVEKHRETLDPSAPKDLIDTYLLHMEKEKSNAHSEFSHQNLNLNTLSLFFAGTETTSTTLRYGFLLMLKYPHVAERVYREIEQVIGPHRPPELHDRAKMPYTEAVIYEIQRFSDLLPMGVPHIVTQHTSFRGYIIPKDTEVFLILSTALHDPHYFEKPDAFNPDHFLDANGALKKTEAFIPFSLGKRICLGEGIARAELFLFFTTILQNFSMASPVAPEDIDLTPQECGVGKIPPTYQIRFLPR
Description: Michaelis-Menten kinetics of efavirenz metabolism in HLM.

The target in series [6] is HIV-1 Reverse Transcriptase (RT)-associated RNase H. Also on record: method as in Sonar et al., 2017. The settings on record: in vitro, ref Sonar et al., 2017, cited from earlier work.
For series [7], the system named is β-esterases. Description: Michaelis-Menten kinetics of rifampicin metabolism in HLM. The class given is in vitro ADME, human. The settings on record: pooled HLM.
The test system of series [8] is CYP3A enzymes. Also on record: method as in Quintieri et al., 2008. Particulars: ref Quintieri et al., 2008; cited from earlier work.
For series [9], the system named is CYP1A2. Also on record: method as in Pan et al., 2014. The settings on record: ref Pan et al., 2014; cited from earlier work.

Molecules are shown by their SMILES. Where “and” joins values, the source holds several entries; their conditions need not be identical. Identical values can stand only once. Counter-ions that a name gives are not always drawn. A value given as a limit tells only on which side of the number the result lay.

As for `C[C@@H]1C[C@H]2[C@@H]3CCC4=CC(=O)C=C[C@]4(C)[C@@]3(F)[C@@H](O)C[C@]2(C)[C@@]1(O)C(=O)CO` [Dexamethasone, dexamethasone], the “fold induction of CYP2B6 mRNA expression” value in series [1] is on record as “significant fold induction”.
In general, IC50 refers to the concentration that gives 50% inhibition. As for `Cc1c(O)cccc1C(=O)N[C@@H](CSc1ccccc1)[C@H](O)CN1C[C@H]2CCCC[C@H]2C[C@H]1C(=O)NC(C)(C)C` [nelfinavir, nelfinavir mesylate hydrate], the inhibition at 0.5 h in series [2] worked out at 30%. Also, the half-maximal inhibitory concentration (IC50) is 2.7 µM in series [3]; 6.39 µM and 3.63 µg/mL in [4] (HLM, 30 min pre-incubation with NADPH, rifampicin as substrate, read-out: TDI IC50 against rifampicin metabolism). Further, the IC50 shift in series [4] (rifampicin pathway, fold shift ≥1.5 classified positive for TDI, read-out: IC50 shift-fold, co-incubation IC50(-) / pre-incubation IC50(+)) is above 1.5.
As a reminder, the Km is the concentration of substrate that gives half-maximal velocity. In the case of `O=C1Nc2ccc(Cl)cc2[C@@](C#CC2CC2)(C(F)(F)F)O1` [EFV, efavirenz], in [5] (human, pooled human liver microsomes), the Km is 15.1 µM. In addition, in series [5] (pooled HLM), the “CLint (Vmax/Km)” value worked out at 0.0240 μl/min/mg protein. Besides, the Vmax in series [5] (pooled HLM, formation of 8-hydroxy efavirenz) is 0.3576 pmol/min/mg protein.
With `CCCCCCCCCCCCCCOC(=O)/C=C/c1ccc(O)c(OC)c1` [tetradecyl ferulate], in series [6] (read-out: IC50, RNase H inhibition), the IC50 was 12.4 µM.
As to `CCCCCCCC/C=C\CCCCCCCCNC(=O)/C=C/c1ccc(O)c(O)c1` [N-oleylcaffeamide], the “inhibition of RT-associated activity of ribonuclease H and DNA polymerase” value in series [6] was “strongly inhibited”.
`CO[C@H]1/C=C/O[C@@]2(C)Oc3c(C)c(O)c4c(O)c(c(/C=N/N5CCN(C)CC5)c(O)c4c3C2=O)NC(=O)/C(C)=C\C=C\[C@H](C)[C@H](O)[C@@H](C)[C@@H](O)[C@@H](C)[C@H](OC(C)=O)[C@@H]1C` [RIF, rifampicin]: the “CLint (Vmax/Km)” value in series [7] was 0.0260 μl/min/mg protein. Also, the Vmax is 1.2330 pmol/min/mg protein in [7] (formation of 25-O-desacetyl rifampicin) and 1.233 pmol/min/mg protein in series [7] (formation of 25-O-desacetyl rifampicin, listed as RIFAMPICIN). In addition, the Michaelis constant (Km) in [7] (formation of 25-O-desacetyl rifampicin, 0–150 μM) was 48.2 µM.
As to `COc1ccc(-c2cc(=O)c3c(O)c(OC)c(OC)cc3o2)cc1` [Salvigenin, Salvigenin (5-Hydroxy-6,7,4′-trimethoxyflavone)], in series [8], the “inhibition of CYP3A enzymes” value is “moderate inhibitor”.
Turning to `COc1ccc(-c2cc(=O)c3c(O)c(OC)c(OC)cc3o2)cc1O` [Eupatorin, Eupatorin (3′,5-Dihydroxy-4′,6,7-trimethoxyflavone)], in series [9], the “inhibition of CYP1A2” value is listed as “inhibits”.

The values above are taken from paper PMC7204527, “In Vitro Assessment of the Interaction Potential of Ocimum basilicum (L.) Extracts on CYP2B6, 3A4, and Rifampicin Metabolism” (Frontiers in Pharmacology, 2020).
